The values below come from paper PMC8097335, “A High‐Affinity Calmodulin‐Binding Site in the CyaA Toxin Translocation Domain is Essential for Invasion of Eukaryotic Cells” (Advanced Science, 2021).

Experiment [1] relates to CaM. The experiment can be described thus: Size exclusion chromatography of P454, H and AC364 with CaM in the presence of CDZ. Format: binding. The settings on record: SEC, buffer B, CaM 15 µM, CDZ 40 µM, tryptophan fluorescence. As to the method:
(§1) T PCK-treated trypsin (Millipore Sigma, Burlington, MA, USA) for 10 min at 30°C to digest the adenylate cyclase that remained at the external surface of the erythrocytes. A 5-fold excess of soybean trypsin inhibitor was added and cells were washed with buffer A and lysed with 0.1% Tween 20. The activity protected from trypsin digestion corresponds to the internalized toxin. Activities are expressed as percentages of total toxin added to the erythrocytes (taken as 100%) and represent average values from at least three independent measurements. One unit of CyaA activity corresponds to 1 μmol of cAM P formed per min at 30°C and pH 8.0. The bound and internalized AC activities measured with the CyaA recombinant proteins were normalized to that of the WT CyaA toxin.
For the CyaA intoxication experiments in the presence of calmidazolium (CDZ), in order to minimize the cell exposure to this potent CaM inhibitor, we performed a two-step intoxication assay as described originally by Rogel and Hanski 19. For this, the erythrocytes (5 x 10^8 cells/mL) were in a first step incubated with CyaA (1 μg/mL, 5.6 nM) in buffer A plus 2 mM CaCl2 at 4 °C for 30 min. In these conditions, the toxin can bind to the cell membrane but cannot translocate across membrane 19. […]
(§2) then resuspended in cold buffer A plus 2 mM CaCl2 and split in two fractions. […] After addition of soybean trypsin inhibitor, the cells were washed with buffer A then lysed with 0.1% Tween 20 and the internalized AC activity protected from trypsin digestion was measured and expressed as a percentage of bound AC activity. […]
The SEC experiments were performed on a TSKgel G3000SW 7.5 mm ID * 30 cm - column equilibrated in buffer B at a flow rate of 0.6 mL/min at RT. The elution profiles were measured by absorbance at 280 nm, conductivity and by tryptophan fluorescence on a FP750 fluorometer (Ex.: 280 nm; Em.: 340 nm; bandwidths 10/10 nm ) equipped with a on -line cell .
(§3) Tryptophan fluorescence is used for the SEC profiles because this allows monitoring the […]
weak fluorescence signal. […]
fluorescence signal. […]
Background: In gel filtration, larger molecules generally elute earlier.

Experiment [2] concerns the target holo-CaM. The following applies: cited from earlier work.
Experiment [3] has as its system sheep erythrocytes. The experiment is described as follows: Two-step CyaA intoxication assay with or without calmidazolium. Format: cell-based. The settings on record: CyaA […] bound at 4 °C 30 min, 10 μM CDZ added just prior to shift from 4 to 37 °C; 2, 5, 10 min; three independent replicates. The protocol:
as §1, with “CyaA toxin. […]” for “CyaA toxin.”
as §2, §3

Experiment [4] relates to adenylate cyclase (AC384GK, catalytic domain of CyaA). The experiment is described as follows: CaM-dependent adenylate cyclase activity with or without calmidazolium. It counts as biochemical, Bordetella pertussis. The settings on record: CDZ 10 µM, assayed in the presence of 1 µM CaM. As to the method: as §1, with “CyaA toxin. […]” for “CyaA toxin.”
as §2, §3
Figure S15: CaM-dependent activation of AC with or without calmidazolium (C D Z ) . […] Th e adenylate cyclase activity is expressed as mol of cAMP per sec per mol of AC384GK. […]

Experiment [5] concerns the target CaM. The settings on record: quoted without reference; read-out: Kd of AC:CaM; cited from earlier work.

With `Clc1ccc(C(c2ccc(Cl)cc2)n2cc[n+](CC(OCc3ccc(Cl)cc3Cl)c3ccc(Cl)cc3Cl)c2)cc1` (stereo not shown) [CDZ, Calmidazolium chloride], in experiment [1] (AC364 10 µM), the “Effect of CDZ on CaM association with the AC domain” value was “not with the AC domain”. Moreover, the “Effect of CDZ on the H:CaM complex” value in experiment [1] (H 10 µM) was “partially inhibited”. In addition, the “Effect of CDZ on CaM association with P454” value in experiment [1] (P454 10 µM) is “can specifically inhibit”. Besides, the Ki (in general, the dissociation constant of the complex between target and ligand, obtained from inhibition or displacement) in experiment [2] was 10 to 50 nM. In addition, in experiment [3], the “Amount of internalized AC with CDZ” value is “drastically reduced”. The “Effect on AC enzymatic activity” value in experiment [4] is given as “no inhibitory effect”.
Regarding “AC: N-terminal adenyl cyclase catalytic domain of CyaA, first 364 residues”, the Kd (as a rule, the constant that tells how readily two partners part at equilibrium) in experiment [5] is approximately 0.1 nM.
